{"source": "patent US8592451B2", "about": "“Reversible nondepolarizing neuromuscular blockade agents and methods for their use” (Cornell University, priority 2009, dated 2013)", "key": {"[1]": {"test": "L-cysteine adduction kinetics in vitro (HPLC)", "format": "physicochemical", "conditions": "pH 7.4, 37° C.; for NMBA peak area / [NMBA] remaining / ln* = ln (([NMBA]t[L-cysteine]t=0)/([NMBA]t=0[L-cysteine]t)): CW 011 1000 μg/mL + 1.05 equiv. L-cysteine", "description": "In a second experiment, to evaluate degradation in the presence of L-cysteine, buffered solutions (pH 7.4) of gantacurium, CW 002 or CW 011 were freshly prepared at 37° C. to give experimental concentrations of 1000 μg/mL (CW 002 and CW 011) and 200 μg/mL (gantacurium), after addition to and mixing with a 5% Molar excess of L-cysteine at time=0.\nThe concentration of neuromuscular blocking agent/parent compound remaining at specified time points after mixing was determined by high performance liquid chromatography. The concentration of blocking agent at each time point was determined from a separately prepared reaction mixture, due to the rapid rate of L-cysteine adduction. The reaction rate constant for the second order reaction of each neuromuscular blockade agent (NMBA) with L-cysteine was derived by plotting the natural log of ([NMBA]t[L-cysteine]t=0/[NMBA]t=0[L-cysteine]t) vs. time.\nConcentrations selected were 200, 100 and 50 μg/ml which are approximately proportional to the relative potencies (ED 95) of gantacurium, CW 002 and CW 011 respectively. A degradation (adduction) pathway in the presence of L-cysteine for each of the three compounds was proposed.\nThe reaction of L-cysteine with CW 002, CW 011 or gantacurium is first order in the case of both the neuromuscular blockade agent (NMBA) and L-cysteine, represented by the rate equation (1). d[Adduct]/dt=−d[NMBA]/dt=ka[NMBA][L-cysteine] (1)\nCalculation of the L-cysteine adduction half time requires experimental derivation of the reaction rate constant, ka, for each compound. The initial concentrations of NMBA and L-cysteine are unequal in the experiments conducted for this study, thus integration of equation 1 gives equation 2, where [NMBA]0 is the NMBA concentration at time equals 0 and [NMBA]t is the NMBA concentration at a time point, t.\n[formula] A plot of the ln(([NMBA]t [L-cysteine]0)/([NMBA]0 [L-cysteine]t)) versus time (ln* vs. t) gives a line, with slope equal to ka([NMBA]0−[L-cysteine]0). An adduction reaction half time can be calculated by solving for ka to be used in equation 3.\nNMBA standard solutions were prepared by a method similar to that used to prepare hydrolysis standards. The standards were prepared at 1000 μg/mL for CW 002 and CW 011 and 200 μg/mL for gantacurium.\nSolutions used for determination of NMBA concentration at the reported times for CW 002 and CW 011 were prepared as follows: L-cysteine hydrochloride monohydrate was charged to a volumetric flask in de-ionized water. A 5 mL aliquot of the L-cysteine solution (1.05 equiv. L-cysteine with respect to NMBA) was transferred by volumetric pipette to a flask held at 37.0±0.3° C. CW 002 or CW 011 was then charged to a separate 25 mL volumetric flask and diluted to volume with pH 7.4 phosphate buffer at 37.0° C. The NMBA solution was then immediately transferred to the flask containing L-cysteine to give an initial NMBA concentration of 1000 μg/mL. Solutions used for determination of gantacurium concentration versus time were prepared in a similar manner to give an initial concentration of 200 μg/mL. T=0 was defined as the time of addition of NMBA solution to L-cysteine solution. The times listed in the results table show the point of HPLC sample injection following mixing of L-cysteine and NMBA at time=0 (Table 1, below).\nRate constants were calculated using equation (3) and the slope of the trend line derived from each data set. The strong linear correlation of the data within each set supports the use of second order kinetics for analysis of the cysteine adduction reactions.\nReaction half times were calculated using equation 4 and the experimentally determined rate constants. The initial NMBA concentrations were chosen to reflect the relative potency observed in vivo."}, "[2]": {"system": "twitch of the extensor digitorum", "test": "Reversal of neuromuscular blockade by L-cysteine or neostigmine in anesthetized rhesus monkeys", "format": "in vivo, rhesus monkeys (Macaca mulatta)", "description": "A control dose of 0.15 mg/kg CW 002 was allowed to recover spontaneously to TOF 110-120%. A second dose was given 60 minutes later, followed one minute afterwards by either neostigmine (0.05 mg/kg+atropine 0.05 mg/kg) or L-cysteine (10, 20, 30 or 50 mg/kg). Total duration and 5-95% recovery intervals were compared during spontaneous recovery vs. antagonism by L-cysteine or reversal by neostigmine.\nThis series of paired comparisons was designed to generate dose-response data comparing spontaneous recovery of high doses of CW 011 (from 4 to 64× ED95) versus immediate antagonism at +1 min by an optimal dose of L-cysteine (50 mg/kg), previously determined during studies of immediate antagonism of CW 002. This experiment was done to explore the limits of chemical antagonism by L-cysteine of these olefinic diester neuromuscular blocking drugs, using CW 011 as a typical example with an intermediate duration of action. Five groups of animals first received a control dose of CW 011 at 4, 8, 16, 32 or 64× ED 95 (0.1 to 1.6 mg/kg). Sixty minutes after spontaneous recovery of the control dose to TOF 110-120%, the same dose was repeated, followed 1 min later by L-cysteine (50 mg/kg). Total duration of action and 5-95% recovery interval were compared during spontaneous recovery and following antagonism by L-cysteine\nThe reversal of neuromuscular blockade by cysteine (5-50 mg/kg i.v.) was studied. Reversal was tested as follows: full paralysis was induced by injection of a dose of approximately 2-6× ED 95 of the compound in question. After spontaneous recovery of this dose, a second identical dose was given 15-30 min later. Cysteine was then given at +1 min after injection of the neuromuscular blocking drug at a point where no twitch was apparent (“immediate reversal”) or at the beginning of recovery from neuromuscular blockade at two percent twitch height (“classical reversal”). Comparisons were made among compounds with respect to rapidity and ease of cysteine reversal, by comparing 5-95% recovery times, and total durations of action (injection to 95% twitch recovery). Spontaneous recovery was compared with cysteine-accelerated recovery. […]"}}, "data": [{"smiles": "COc1ccc(C[C@@H]2c3cc(OC)c(OC)cc3CC[N@@+]2(C)CCCOC(=O)/C=C\\C(=O)OCCC[N@+]2(C)CCc3cc(OC)c(OC)cc3[C@H]2Cc2cc(OC)c(OC)c(OC)c2)cc1OC", "note": "[CW 011]", "values": [{"measurement": "NMBA peak area", "setting": "[1]; Trial 1, 123 Sec", "value": 2587.0, "unit": "mAU's"}, {"measurement": "[NMBA] remaining", "setting": "[1]; Trial 1, 123 Sec", "value": 228, "unit": "µM"}, {"measurement": "ln* = ln (([NMBA]t[L-cysteine]t=0)/([NMBA]t=0[L-cysteine]t))", "setting": "[1]; Trial 1, 123 Sec", "value": "−0.248"}, {"measurement": "NMBA peak area", "setting": "[1]; Trial 2, 132 Sec", "value": 2500.5, "unit": "mAU's"}, {"measurement": "[NMBA] remaining", "setting": "[1]; Trial 2, 132 Sec", "value": 221, "unit": "µM"}, {"measurement": "ln* = ln (([NMBA]t[L-cysteine]t=0)/([NMBA]t=0[L-cysteine]t))", "setting": "[1]; Trial 2, 132 Sec", "value": "−0.256"}, {"measurement": "NMBA peak area", "setting": "[1]; Trial 3, 143 Sec", "value": 2293.0, "unit": "mAU's"}, {"measurement": "[NMBA] remaining", "setting": "[1]; Trial 3, 143 Sec", "value": 202, "unit": "µM"}, {"measurement": "ln* = ln (([NMBA]t[L-cysteine]t=0)/([NMBA]t=0[L-cysteine]t))", "setting": "[1]; Trial 3, 143 Sec", "value": "−0.284"}, {"measurement": "NMBA peak area", "setting": "[1]; Trial 4, 182 Sec", "value": 1765.4, "unit": "mAU's"}, {"measurement": "[NMBA] remaining", "setting": "[1]; Trial 4, 182 Sec", "value": 155, "unit": "µM"}, {"measurement": "ln* = ln (([NMBA]t[L-cysteine]t=0)/([NMBA]t=0[L-cysteine]t))", "setting": "[1]; Trial 4, 182 Sec", "value": "−0.378"}, {"measurement": "Plot Slope (ln* vs. time)", "setting": "[1]; L-cysteine adduction, data of Table 1", "value": "−0.0023"}, {"measurement": "ka, second order rate constant of L-cysteine adduction", "setting": "[1]", "value": 24.7, "unit": "M⁻¹ s⁻¹"}, {"measurement": "half-life at 50 μg/ml", "setting": "[1]; pH 7.4 phosphate buffer with L-cysteine, calculated at [NMBA]0 0.0000493 M (50 μg/ml), read-out: L-cysteine adduction reaction half time t1/2", "value": 13.7, "unit": "min"}, {"measurement": "time to reversal of blockade with cysteine (FIG. 2B)", "setting": "[2]; CW 011, all cysteine concentrations tested (10 mg/kg to 50 mg/kg as worded elsewhere in the source)", "value": "less than 6 minutes"}, {"measurement": "time from cysteine administration to beginning of reversal (FIG. 2B)", "setting": "[2]; CW 011, higher cysteine doses", "value": "2 to 3", "unit": "min"}, {"measurement": "time to spontaneous reversal of blockade (FIG. 2)", "setting": "[2]; CW 011, no reversal agent", "value": "more than 12 minutes"}, {"measurement": "reversibility of neuromuscular blockade by thiol compounds", "setting": "[2]; cysteine (L or D) or glutathione", "value": "reversible"}, {"measurement": "effect of neostigmine given immediately after the blocking drug", "setting": "[2]; immediate reversal", "value": "ineffective"}, {"measurement": "spontaneous reversal rate (FIG. 2A)", "setting": "[2]; increasing doses of CW 011 (4 to 64× ED95), no reversal agent", "value": "decreases with increasing CW 011 dose"}, {"measurement": "classical antagonism of neuromuscular blockade by neostigmine", "setting": "[2]; neostigmine given at beginning of spontaneous recovery, e.g. at 2% twitch height", "value": "showed antagonism"}]}]}
